Assay results from US7709014B2, “Hydroxy-oligocarboxylic esters: effects on nerve and use for cutaneous and mucocutaneous organs or sites” (priority 2005, dated 2010).
Counter-ions that a name gives are not always drawn.

Legend:
[1] = test system: mucocutaneous organs or sites; experiment: Topical application to mucocutaneous organs or sites: general findings on sensuous, sensational and mild anesthetic effects; format: in vivo, human; details: for sensuous or mild anesthetic effect: topical application, same conditions as the hydroxy-oligocarboxylic esters
From the text: The present invention is based on the discovery that topical application of a hydroxy-oligocarboxylic ester, preferably a hydroxydicarboxylic ester or more preferably a hydroxytricarboxylic ester such as tripropyl citrate on topical application can produce sensuous, sensational and mild anesthetic effects on mucocutaneous organs or sites, such as lips, mouth, gum, nostrils, nipples, vulva, vagina, penis and anus. […] The sensuous and sensational effects produced by the hydroxy-oligocarboxylic ester, preferably a hydroxydicarboxylic ester or more preferably a hydroxytricarboxylic ester are quite different from the numbing effects induced by local anesthetics such as lidocaine and procaine. The sensuous, sensational and mild anesthetic effects produced by the hydroxy-oligocarboxylic ester according to the present invention generally last from a few minutes to a few hours. Such nerve-acting sensation or effect has many cosmetic, dental and dermatological applications. For example, a lipstick or lip balm comprising a hydroxy-oligocarboxylic ester, preferably a hydroxydicarboxylic ester or more preferably a hydroxytricarboxylic ester, can provide a sensuous or sensational feeling after topical application to lips of a human subject. Such sensuous action and certain anesthetic effects on nervous system produced by the hydroxy-oligocarboxylic ester can have beneficial applications such as to relieve itch or pain of lips, mouth, gum, nostrils, nipples, vulva, vagina, penis and anus, and for conditions associated with eczema, hemorrhoids, dry or aging-associated changes of the vulva and vagina.

[2] = test system: itchy and eczematous skin (atopic eczema); experiment: Topical application on itching, eczematous skin of a human subject: relief of itch; format: in vivo; details: for effect on itch associated with eczema or psoriasis / time after topical application until the itch disappears: cream or ointment containing 10%, topically applied to eczematous or psoriatic lesions (general description)
Method: A composition comprising a hydroxy-oligocarboxylic ester, preferably a hydroxydicarboxylic ester, and more preferably a hydroxytricarboxylic ester, can also be topically applied to mucocutaneous or skin lesions. For example, a cream or ointment containing 10% tripropyl citrate or tri-isopropyl citrate can be topically applied to eczematous or psoriatic lesions twice daily for 4 to 16 weeks.
Tripropyl citrate 10 g and propylene glycol 20 ml were mixed with hydrophilic ointment or oil-in-water emulsion 70 g. The composition thus prepared contained 10% tripropyl citrate in water-soluble oil-in-water emulsion.
A subject, having atopic eczema with severe itching skin, topically applied the above 10% tripropyl citrate cream on their right leg with itchy eczematous lesions. […]

nerves of the lips = experiment: Topical application of ester ointment or cream on the lips of human subjects: sensual, sensational, plumping or numbing feelings; format: in vivo; details: for duration of the feelings of the lips / sensual, sensational or plumping feelings of the lips / time after application until the lips experienced the feelings: 10% in water-non-washable ointment, human; for feelings of the lips: cream or ointment containing 10%, topically applied to lips (general description)
From the text: The mucocutaneous organs or sites include lips, mouth, gum, nostrils, nipples, vulva, vagina, penis and anus.
Ethyl glycolate 10 g was mixed with 90 g ointment prepared from white petrolatum 50 parts, mineral oil 40 parts and white beeswax 10 parts. The composition thus prepared contained 10% ethyl glycolate in a hydrophobic ointment that was not washable with water (a water-non-washable ointment).
A subject, topically applied the above 10% ethyl glycolate ointment on their lips.
L-Ethyl lactate 10 g was mixed with 90 g ointment prepared from white petrolatum 50 parts, mineral oil 40 parts and white beeswax 10 parts. The composition thus prepared contained 10% L-ethyl lactate in water-non-washable ointment. A subject, topically applied the above 10% L-ethyl lactate ointment on their lips.
DL-Diethyl malate 10 g was mixed with 90 g ointment prepared from white petrolatum 50 parts, mineral oil 40 parts and white beeswax 10 parts. The composition thus prepared contained 10% DL-diethyl malate in a water-non-washable ointment.
A subject, topically applied the above 10% DL-diethyl malate ointment on their lips.
D-Diethyl tartarate 10 g was mixed with 90 g ointment prepared from white petrolatum 50 parts, mineral oil 40 parts and white beeswax 10 parts. The composition thus prepared contained 10% D-diethyl tartarate in a water-non-washable ointment.
A subject, topically applied the above 10% D-diethyl tartarate ointment on their lips.
L-Diethyl tartarate 10 g was mixed with 90 g ointment prepared from white petrolatum 50 parts, mineral oil 40 parts and white beeswax 10 parts. The composition thus prepared contained 10% L-diethyl tartarate in a water-non-washable ointment. A subject, topically applied the above 10% L-diethyl tartarate ointment on their lips.
Trimethyl citrate 10 g was mixed with 90 g ointment prepared from white petrolatum 50 parts, mineral oil 40 parts and white beeswax 10 parts. The composition thus prepared contained 10% trimethyl citrate in a water-non-washable ointment.
A subject, topically applied the above 10% trimethyl citrate ointment on their lips.
Lidocaine 5 g was dissolved in warm propylene glycol 20 ml, and the solution thus obtained was mixed with 75 g ointment prepared from white petrolatum 50 parts, mineral oil 40 parts and white beeswax 10 parts. The composition thus prepared contained 5% lidocaine in a water-non-washable ointment.
A subject, topically applied the above 5% lidocaine ointment on their lips.
Tripropyl citrate 10 g was mixed with 90 g ointment prepared from white petrolatum 50 parts, mineral oil 40 parts and white beeswax 10 parts. The composition thus prepared contained 10% tripropyl citrate in a water-non-washable ointment.
A subject, topically applied the above 10% tripropyl citrate ointment on their lips.
Tri-isopropyl citrate 10 g was mixed with 90 g ointment prepared from white petrolatum 50 parts, mineral oil 40 parts and white beeswax 10 parts. The composition thus prepared contained 10% tri-isopropyl citrate in a water-non-washable ointment.
A subject, topically applied the above 10% tri-isopropyl citrate ointment on their lips.

[3] = test system: itchy and eczematous skin (atopic eczema); experiment: Topical application on itching, eczematous skin of a human subject: relief of itch; format: in vivo; details: 10% in water-non-washable ointment, itching skin of right lower leg, subject with atopic eczema
[4] = 10% cream (water-soluble oil-in-water emulsion with propylene glycol), itchy eczematous lesions of right leg, subject with atopic eczema
[5] = 5% in water-non-washable ointment with propylene glycol, topically applied on lips, subject

Structure (SMILES)	duration of the feelings of the lips (nerves of the lips; topically applied on lips)	sensual, sensational or plumping feelings of the lips (nerves of the lips; topically applied on lips)	time after application until the lips experienced the feelings (nerves of the lips; topically applied on lips)	also measured
CCCOC(=O)CC(O)(CC(=O)OCCC)C(=O)OCCC [tripropyl citrate, Tripropyl citrate]	90 to 120 min	sensual and sensational feelings	a few	sensuous and sensational effects compared with trimethyl citrate ([1]; strength and duration, compared with trimethyl citrate): much stronger and longer-lasting sensuous and sensational effects; effect on itch [2, 4]: the itch disappeared completely; time after application until the itch disappeared [2, 4]: a few; time the skin remained free of itch [2, 4]: 4 h; effect on itch associated with eczema or psoriasis [2]: usually disappears; time after topical application until the itch disappears [2]: a few; feelings of the lips (nerves of the lips): sensual and sensational pleasure with very mild anesthetic effects
CC(C)OC(=O)CC(O)(CC(=O)OC(C)C)C(=O)OC(C)C [tri-isopropyl citrate, Tri-isopropyl citrate]	about an hour	sensual and sensational feelings	a few	effect on itch associated with eczema or psoriasis [2]: usually disappears; time after topical application until the itch disappears [2]: a few; feelings of the lips (nerves of the lips): sensual and sensational pleasure with very mild anesthetic effects
CCOC(=O)[C@@H](O)[C@H](O)C(=O)OCC [D-diethyl tartarate, D-Diethyl tartarate]	10 to 20 min	slight sensual and plumping feelings	one to two	
CCOC(=O)CC(O)(CC(=O)OCC)C(=O)OCC [triethyl citrate, Triethyl citrate]	20 to 30 min	sensual and plumping feelings	one to two	feelings of the lips (nerves of the lips): sensual and sensational pleasure with very mild anesthetic effects; effect on itch [3]: the itch stopped; time after application until the itch stopped [3]: a few; time the skin remained free of itch [3]: 4 h
CCOC(=O)[C@H](C)O [L-ethyl lactate, L-Ethyl lactate, reference compound]		no sensual or sensational feelings during the next 30 minutes		
CCOC(=O)CO [ethyl glycolate, Ethyl glycolate, reference compound]		no sensual or sensational feelings during the next 30 minutes		sensuous or mild anesthetic effect [1]: does not produce a sensuous or mild anesthetic effect
CCOC(=O)[C@H](O)[C@@H](O)C(=O)OCC [L-diethyl tartarate, L-Diethyl tartarate]	10 to 20 min	slight sensual and plumping feelings	one to two	
CCOC(=O)CC(O)C(=O)OCC (racemic) [DL-diethyl malate, DL-Diethyl malate]	10 to 20 min	sensual and plumping feelings	one to two	
O=C(CC(O)(CC(=O)OCc1ccccc1)C(=O)OCc1ccccc1)OCc1ccccc1 [tribenzyl citrate, Tribenzyl citrate]		slight sensual and sensational feelings	a few	
CCOC(=O)C(C)O (stereo not shown) [ethyl lactate]				sensuous or mild anesthetic effect [1]: does not produce a sensuous or mild anesthetic effect
CCN(CC)CC(=O)Nc1c(C)cccc1C [lidocaine, Lidocaine, reference compound]				duration of the numbing effect (nerves of the lips; [5]): several; numbing effect on the lips (nerves of the lips; [5]): the lips felt numb; time after application until the lips felt numb (nerves of the lips; [5]): a few
COC(=O)CC(O)(CC(=O)OC)C(=O)OC [trimethyl citrate, Trimethyl citrate]		very slight sensual and plumping feelings	one to two	
